Source: the supplement of paper PMC10307832

Legend:
Test in all cases: relative viability (nuclei count vs DMSO), 5 days (fraction); higher = more cells survive
[1] = compound: CC1=CC(=NN1)NC2=CC(=NC(=N2)/C=C/C3=CC=CC=C3)N4CCN(CC4)C + O=C(CCCCCCC(=O)Nc1ccccc1)NO [Vorinostat] (partner 1 µM)
How it was run: (§1)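 The day after seeding in 1536-well plates, lung cancer cell lines were treated by pin tool with a single drug, or with a fixed anchor-drug dose together with five library-drug doses (not always all listed) in √10 steps. After 5 days, a combined fix-and-stain solution (final 0.05% Triton X-100, 1% formaldehyde, 1 ug/ml Hoechst) was added. Nuclei counted on 4× images gave relative viability as treated counts over vehicle counts, reported as the median of duplicate plates.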

Bortezomib + Dasatinib = compound: CC(C)C[C@H](NC(=O)[C@H](Cc1ccccc1)NC(=O)c1cnccn1)B(O)O [Bortezomib] + Cc1nc(Nc2ncc(C(=O)Nc3c(C)cccc3Cl)s2)cc(N2CCN(CCO)CC2)n1 [Dasatinib] (partner 0.075 µM)
How it was run: as §1

Obatoclax + AZD7762 = compound: COC1=CC(c2cc3ccccc3[nH]2)=N/C1=C\c1[nH]c(C)cc1C [Obatoclax] + NC(=O)Nc1cc(-c2cccc(F)c2)sc1C(=O)N[C@H]1CCCNC1 [AZD7762] (partner 0.2 µM)
How it was run: as §1

[2] = compound: CC1=CC(=NN1)NC2=CC(=NC(=N2)/C=C/C3=CC=CC=C3)N4CCN(CC4)C + CC(C)C[C@H](NC(=O)[C@H](Cc1ccccc1)NC(=O)c1cnccn1)B(O)O [Bortezomib] (partner 0.002 µM)
How it was run: as §1

Row | Cell Line | relative viability ([1]; first compound 0.08 µM) | relative viability ([1]; first compound 0.253 µM) | relative viability ([1]; first compound 0.8 µM) | relative viability ([1]; first compound 2.53 µM) | relative viability ([1]; first compound 8 µM) | relative viability (Bortezomib + Dasatinib; first compound 0.0002 µM) | relative viability (Bortezomib + Dasatinib; first compound 0.000632 µM) | relative viability (Bortezomib + Dasatinib; first compound 0.002 µM) | relative viability (Bortezomib + Dasatinib; first compound 0.006325 µM) | relative viability (Bortezomib + Dasatinib; first compound 0.02 µM) | relative viability (Obatoclax + AZD7762; first compound 0.01 µM) | relative viability (Obatoclax + AZD7762; first compound 0.03162 µM) | relative viability (Obatoclax + AZD7762; first compound 0.1 µM) | relative viability (Obatoclax + AZD7762; first compound 0.3162 µM) | relative viability (Obatoclax + AZD7762; first compound 1 µM) | relative viability ([2]; first compound 0.08 µM) | relative viability ([2]; first compound 0.253 µM) | relative viability ([2]; first compound 0.8 µM) | relative viability ([2]; first compound 2.53 µM) | relative viability ([2]; first compound 8 µM)
1 | 201T | 1 | 1.13 | 0.997 | 0.879 | 0.449 | 0.571 | 0.607 | 0.536 | 0.589 | 0.283 | 0.608 | 0.601 | 0.579 | 0.614 | 0.702 | 1.11 | 1.17 | 1.06 | 1.02 | 1.01
2 | A-427 | 0.943 | 0.904 | 0.822 | 0.334 | 0.212 | 0.611 | 0.746 | 0.716 | 0.408 | 0.104 | 0.746 | 0.757 | 0.496 | 0.467 | 0.441 | 1.1 | 1.06 | 1.08 | 0.635 | 0.361
3 | ABC-1 | 1.01 | 1.19 | 1.31 | 0.392 | 0.225 | 0.6 | 0.317 | 0.243 | 0.224 | 0.233 | 0.639 | 0.749 |  | 0.817 | 0.839 | 0.418 | 0.268 | 0.303 | 0.257 | 0.205
4 | BEN | 0.544 | 0.53 | 0.563 | 0.47 | 0.334 | 0.262 | 0.408 | 0.343 | 0.246 | 0.249 | 0.762 | 0.607 | 0.544 | 0.734 | 0.704 | 0.854 | 0.992 | 0.831 | 0.523 | 0.197
5 | CAL-12T | 0.686 | 0.573 | 0.639 | 0.428 | 0.126 | 0.538 | 0.347 | 0.53 | 0.119 | 0.0844 | 0.616 | 0.554 | 0.531 | 0.518 | 0.294 | 0.979 | 0.952 | 0.645 | 0.268 | 0.164
6 | COR-L23 | 0.417 | 0.446 | 0.195 | 0.0754 | 0.087 | 0.461 | 0.459 | 0.485 | 0.045 | 0.054 |  |  |  |  |  | 0.972 | 1.29 | 1 | 0.196 | 0.0895
7 | COR-L 105 | 0.818 | 0.762 | 0.753 | 0.47 | 0.262 | 0.381 | 0.324 | 0.352 | 0.267 | 0.216 |  |  |  |  |  | 0.744 | 0.988 | 0.76 | 0.263 | 0.231
8 | Calu-6 |  |  |  |  |  |  |  |  |  |  |  |  |  |  |  | 0.912 | 0.947 | 0.764 | 0.174 | 0.13
9 | ChaGo-K-1 | 0.799 | 0.8 | 0.613 | 0.343 | 0.186 | 0.535 | 0.539 | 0.558 | 0.207 | 0.13 | 0.892 | 0.88 | 0.831 | 0.881 | 0.914 | 0.994 | 1.2 | 1.15 | 0.285 | 0.241
10 | EBC-1 |  |  |  |  |  |  |  |  |  |  |  |  |  |  |  | 0.523 | 0.557 | 0.427 | 0.264 | 0.158
11 | EKVX | 0.702 | 0.82 | 0.794 | 0.571 | 0.289 | 0.544 | 0.526 | 0.707 | 0.397 | 0.185 | 0.614 |  | 0.348 | 0.756 | 0.706 | 0.987 | 1.33 | 1.2 | 0.824 | 0.141
12 | EMC-BAC-2 | 0.416 | 0.428 | 0.354 | 0.171 | 0.0976 | 0.313 | 0.318 | 0.494 | 0.157 | 0.188 | 1.12 | 1.11 | 0.963 | 1.02 | 0.874 | 1.05 | 1.1 | 1.01 | 0.813 | 0.135
13 | EPLC-272H | 0.472 | 0.488 | 0.401 | 0.141 | 0.0816 | 0.342 | 0.192 | 0.277 | 0.0803 | 0.0618 | 0.236 | 0.145 | 0.155 | 0.192 | 0.229 | 0.952 | 0.914 | 0.956 | 0.531 | 0.279
14 | H3255 | 0.746 | 0.834 | 0.872 | 0.831 | 0.525 | 0.332 | 0.271 | 0.299 | 0.37 | 0.28 | 0.874 | 0.848 | 0.725 | 0.785 | 0.762 | 0.878 | 0.854 | 0.895 | 0.745 | 0.198
15 | HARA | 0.545 | 0.689 | 0.459 | 0.26 | 0.0694 | 0.206 | 0.239 | 0.259 | 0.105 | 0.0621 | 0.379 | 0.237 | 0.397 | 0.173 | 0.244 | 0.971 | 1.31 | 1.09 | 0.352 | 0.109
16 | HCC-15 | 0.861 | 0.875 | 0.887 | 0.526 | 0.114 | 0.514 | 0.629 | 0.649 | 0.0786 | 0.0817 | 1.04 | 1.34 | 1.21 | 1.25 | 1.36 | 0.981 | 0.961 | 1 | 0.377 | 0.235
17 | HCC-44 | 1.08 | 1.13 | 1.05 | 0.904 | 0.36 |  |  |  |  |  | 0.95 | 1.03 | 1.14 | 1.01 | 0.978 | 0.805 | 0.968 | 0.854 | 0.735 | 0.25
18 | IA-LM | 1.02 | 1.12 | 0.874 | 0.887 | 0.332 |  |  |  |  |  |  |  |  |  |  | 0.74 | 0.897 | 1.14 | 0.463 | 0.121
19 | LK-2 | 0.254 | 0.155 | 0.283 | 0.223 | 0.126 | 0.287 | 0.304 | 0.203 | 0.114 | 0.138 | 0.456 | 0.374 | 0.444 |  | 0.568 |  |  |  |  | 
